From patent publication US10912763B2 (priority 2010, dated 2021)

Test: Pharmacological activity of the decomposition product

**Q.** With `Fc1ccc2[nH]c3c(c2c1)CCOC31CC=C(c2ccccc2)CC1` (stereo not shown) [6′-fluoro-4-phenyl-4′,9′-dihydro-3′H-spiro[cyclohex-3-ene-1,1′-pyrano[3,4-b]indole]] as the compound, how does the Pharmacological activity read?
**A.** pharmacologically inactive
